Measured values: ChEMBL document CHEMBL1240356, “Efficacy profiles of daptomycin for treatment of invasive and noninvasive pulmonary infections with Streptococcus pneumoniae” (2010)
Activity calls are given as the source filed them. No cut-off for these calls is given here.

What was measured:
Streptococcus pneumoniae [1] = test: Antibacterial activity against 1.5 x 10^7 CFU Streptococcus pneumoniae serotype 19 infected in therapeutic C57BL/6 mouse model assessed as increase in serum compound level at 6 mg/kg, ip measured on day 3 post infection; format: functional, organism-based; design: dose 6 mg/kg
Streptococcus pneumoniae [2] = test: Antibacterial activity against 5 x 10^6 CFU Streptococcus pneumoniae serotype 2 infected in semitherapeutic C57BL/6 mouse model assessed as bacterial count in lung at 6 mg/kg, ip measured after 1 day post infection; format: functional; conditions: route intraperitoneal

With `CCCCCCCCCC(=O)N[C@@H](Cc1c[nH]c2ccccc12)C(=O)N[C@H](CC(N)=O)C(=O)N[C@@H](CC(=O)O)C(=O)N[C@@H]1C(=O)NCC(=O)N[C@@H](CCCN)C(=O)N[C@@H](CC(=O)O)C(=O)N[C@H](C)C(=O)N[C@@H](CC(=O)O)C(=O)NCC(=O)N[C@H](CO)C(=O)N[C@@H]([C@H](C)CC(=O)O)C(=O)N[C@@H](CC(=O)c2ccccc2N)C(=O)O[C@@H]1C` the Activity (Streptococcus pneumoniae [1]) was “Active” and the log10cfu (Streptococcus pneumoniae [2]) was 5.4.
